As usually defined, the ED50 is the dose at which the effect has come halfway, by size or by number of responders. A high value points to weaker potency. Broadly, the IC50 is the concentration at which inhibition is half-maximal. A low value points to higher potency.

These results are taken from US4777172A, “Pyrimidylalkylthio benzimidale compounds, pharmaceutical compositions and use” (Smith Kline & French Laboratories Limited, priority 1986, dated 1988).

Assay [1] has as its system histamine stimulated gastric acid secretion. Nature of the assay: Rat: Lumen perfused stomach (histamine stimulated gastric acid secretion). It counts as in vivo. The text has this: C. Rat: Lumen perfused stomach (histamine stimulated gastric acid secretion).
Using a modification of the procedure described by Ghosh and Schild (Br. J. Pharmacology, 13, 54, 1958), ED50 values after either intraduodenal (i.d) or intravenous (i.v) administration were obtained as follows: […]

Another assay deals with H^+ -K^+ -ATPase. The assay can be described thus: K^+ Stimulated ATPase Activity. It counts as biochemical, pig. How it is done:
A. K^+ Stimulated ATPase Activity
The effects of a single high concentration (1 mM) of a compound of structure (I) on H^+ -K^+ -ATPase were determined at pH 6.1 and pH 7.4. Preferred compounds of structure (I) were also tested over a range of concentrations to determine IC50 values at pH 6.1 and 7.4.
(i) Preparation of Lyophilised Gastric Vesicles (H^+ -K^+ -ATPase)
H^+ -K^+ -ATPase was prepared from the lyophilised gastric vesicles of pig fundic mucosa after the method of Saccomani et. al. (Biochem and Biophys. Acta., 465, 311, 1977).
(ii) K^+ Stimulated ATPase Activity
Compounds of structure (I) were pre-incubated with H^+ -K^+ -ATPase preparation 30 μg protein/ml from (i) in 10 mM Pipes/Tris buffer pH 6.1 and pH 7.4.
After 30 minutes at 37° the pre-incubation was diluted 5-fold with assay buffer to start the ATPase reaction. The conditions in the assay are 100 mM Pipes/Tris, 2 mM MgCl2, 10 mM KCl, 5 μg/ml nigericin, 2 mM Na2 ATP, pH 7.0. After an incubation at 37° for 15 minutes the inorganic phosphate released was determined by the method of Yoda & Hokin (Biochem. Biophys. Res. Com. 40, 880, 1970).
The effect of the same concentration of compound of structure (I) (pre-incubated with H^+ -K^+ -ATPase preparation at pH 7.4 as described above) on the recovery of 100 nmole of inorganic phosphate was also determined. […]

Assay [2] has as its system rabbit intact gastric glands (dibutyryl cAMP stimulated). The assay can be described thus: Aminopyrine (AP) accumulation in intact gastric glands. In kind it is cell-based, New Zealand white rabbits. As to conditions: Oryctolagus cuniculus, 0.5 h; 300 μM dibutyryl cAMP, 30 minutes at 37° C, pH 7.4; amount required to inhibit stimulated aminopyrine accumulation by 50%. How it is done: B. Aminopyrine (AP) accumulation in intact gastric glands
The effect of a single concentration (100 μm) of a compound of structure (I) on dibutyryl cAMP stimulated AP […] in rabbit intact gastric glands was determined. Preferred compounds of structure (I) were tested over a range of concentrations to determine the IC50 value.
(i) Preparation of intact gastric glands.
Intact gastric glands were prepared from New Zealand white rabbits by the method of Berghindh et al. (Acta. Physio. Scand. 96, 150, 1976). Gastric mucosal scrapings were digested at 37° C. for 45-60 min. with Collagenase (100 U, Type 1, Sigma), and glands harvested by coarse filtration and sedimentation.
Test compound was incubated with glands and 300 μM dibutyryl cAMP for 30 minutes at 37° C. Incubating medium contained 132.5 mM NaCl, 5.4 mM KCl, 1.0 mM NaH2 PO4, 5.0 mM Na2 HPO4, 1.2 mM MgSO4, 1.0 mM CaCl2, 11.1 mM glucose, 2.0 mg/ml rabbit albumin, 10 μg/ml phenol red, approximately 0.3 uM[^14 C] […] (110 mCi/mmole), pH 7.4.
After incubation, glands were centrifuged and the supernatant removed. The glands were dried, weighed and dissolved in NaOH. The distribution of radioactivity between the supernatant and glands is then used to calculate the AP ratio after the method of Berglindh et al. (Acta. Physiol. Scand. 97, 401, 1976).
The IC50 value is the amount of compound required to inhibit the stimulated accumulation of aminopyrine by 50%.

The mark [3] stands for this setting: i.d. (intraduodenal) administration.

Counter-ions that a name gives are not always drawn.

Turning to `COc1ccc2[nH]c([S+]([O-])Cc3nccc(N4CCCCC4)n3)nc2c1` (stereo not shown) [Example 3, 5-methoxy-2-(4-piperidino-2-pyrimidinylmethylsulphinyl)-(1H)-benzimidazoleCalcium Salt 2.5H2 O], the ED50 in assay [1] (iv, i.v. administration) stood at 1.4 µmol/kg. The “inhibition of potassium stimulated H^+ -K^+ ATPase” value is on record as “found to inhibit” in the assay on H^+ -K^+ -ATPase (pre-incubation pH 6.1, 30 minutes at 37°) and “found to inhibit” in the assay on H^+ -K^+ -ATPase (pre-incubation pH 7.4, 30 minutes at 37°). Further, in assay [2], half-maximal inhibition (IC50) required 16000 nM.

In turn, `COc1ccc2[nH]c([S+]([O-])Cc3nccc(N4CCCC4)n3)nc2c1` (stereo not shown) [Example 7, 5-methoxy-2-(4-pyrrolidino-2-pyrimidinylmethylsulphinyl)-(1H)-benzimidazole] registered an IC50 in assay [2] of 2440 nM.

`COc1ccc2[nH]c([S+]([O-])Cc3nccc(N(C)C)n3)nc2c1` (stereo not shown) [Example 9, 5-methoxy-2-(4-dimethylamino-2-pyrimidinylmethylsulphinyl)-(1H)-benzimidazole] returned an ED50 in assay [1] (setting [3]) of 2.4 µmol/kg. In assay [2], the IC50 worked out at 1200 nM.

In assay [2], `COc1ccc2[nH]c([S+]([O-])Cc3ncnc(N4CCCCC4)c3C)nc2c1` (stereo not shown) [Example 11, 5-methoxy-2-(5-methyl-6-piperidino-4-pyrimidinylmethylsulphinyl)-(1H)-benzimidazole] showed an IC50 of 6150 nM.

In assay [1] (setting [3]), `COc1ccc2[nH]c([S+]([O-])Cc3ncnc(N4CCCC4)c3C)nc2c1` (stereo not shown) [Example 13, 5-methoxy-2-(5-methyl-6-pyrrolidino-4-pyrimidinylmethylsulphinyl)-(1H)-benzimidazole] registered an ED50 of 2.8 µmol/kg. The same compound showed an IC50 in assay [2] of 320 nM.

In turn, `COc1ccc2[nH]c([S+]([O-])Cc3ncnc(N4CCOCC4)c3C)nc2c1` (stereo not shown) [Example 15, 5-methoxy-2-(5-methyl-6-morpholino-4-pyrimidinylmethylsulphinyl)-(1H)-benzimidazole] came in with an IC50 in assay [2] of 5000 nM.

With `COc1ccc2[nH]c([S+]([O-])Cc3ncnc(N(C)C)c3C)nc2c1` (stereo not shown) [Example 17, 5-methoxy-2-(5-methyl-6-dimethylamino-4-pyrimidinylmethylsulphinyl)-(1H)-benzimidazole], the IC50 in assay [2] came to 3330 nM.

On to `COc1ccc2[nH]c([S+]([O-])Cc3cc(N4CCCCC4)ncn3)nc2c1` (stereo not shown) [Example 19, 5-methoxy-2-(6-piperidino-4-pyrimidinylmethylsulphinyl)-(1H)-benzimidazole], for which the IC50 in assay [2] stood at 2640 nM.
